Here are results for 1 compound from PMC10712729, “A Phase I Trial of the Dual MET Kinase/OCT-2 Inhibitor OMO-1 in Metastatic Solid Malignancies Including MET Exon 14 Mutated Lung Cancer” (The Oncologist, 2023).

Data set [1] deals with MET-activated tumor models. The following applies: preclinical ref 21; cited from earlier work.
In data set [2] the test system is EGFR mutated NSCLC with acquired MET amplification. In kind it is in vivo, human. Particulars: one patient, 200 mg BID with EGFR TKI; led to interruption.
Text: Module 2 (OMO-1 in combination with EGFR TKI) investigated the preliminary efficacy of OMO-1 in patients with activating EGFR mutated NSCLC and an acquired MET amplification after EGFR TKI treatment.
The target of data set [3] is T1, OCT-2 (Homo sapiens, UniProt O15244).
T1 construct: from tissue; host or cells: patients in vivo (endogenous transporter; serum, plasma and urine markers measured)
T1 sequence (O15244 1-555): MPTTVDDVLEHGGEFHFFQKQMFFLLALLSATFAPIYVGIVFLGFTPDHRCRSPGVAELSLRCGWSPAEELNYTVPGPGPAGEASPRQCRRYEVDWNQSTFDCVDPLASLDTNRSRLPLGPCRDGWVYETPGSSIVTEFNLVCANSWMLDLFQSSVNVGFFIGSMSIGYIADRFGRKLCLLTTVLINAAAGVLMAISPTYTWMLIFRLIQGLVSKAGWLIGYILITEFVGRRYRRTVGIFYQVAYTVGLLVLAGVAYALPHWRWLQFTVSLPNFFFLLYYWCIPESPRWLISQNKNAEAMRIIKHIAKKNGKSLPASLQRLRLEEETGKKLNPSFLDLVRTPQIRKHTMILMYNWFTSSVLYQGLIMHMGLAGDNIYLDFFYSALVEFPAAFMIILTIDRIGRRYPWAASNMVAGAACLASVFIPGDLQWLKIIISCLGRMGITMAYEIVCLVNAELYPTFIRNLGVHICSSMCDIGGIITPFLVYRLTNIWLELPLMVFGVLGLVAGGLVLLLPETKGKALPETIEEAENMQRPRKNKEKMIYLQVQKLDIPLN
In words: Renal function markers (creatinine, Cystatin C, KIM1) as on-target OCT-2 inhibition. In kind it is in vivo. Here is the method:
(§1) The starting dose was 100 mg BID.

On the set-up of data set [4]: method as in doi:10.1158/1538-7445.am2015-ct309. Particulars: healthy human volunteers ref 26; cited from earlier work.
Data set [5] concerns the target T1, OCT-2. The data set can be described thus: Plasma tryptophan and kynurenine levels to explore OCT-2 inhibition. In kind it is in vivo. The procedure:
as §1

Data set [6] deals with MET amplified NSCLC or other MET positive solid tumors. The data set can be described thus: Preliminary efficacy by RECIST v1.1, Module 1 Part B cohort 2 (MET basket). In kind it is in vivo, human. The following applies: 5/5 patients, 200 or 250 mg BID. The procedure: as §1
Safety analyses were descriptive.

A further data set has as its target T2, phosphorylated MET (Homo sapiens, UniProt P08581, DEL963-1009).
T2 construct: from tissue; host or cells: paired tumour biopsies (baseline and on-treatment) of an NSCLC patient
The data set can be described thus: Paired biopsy analysis, total and phosphorylated MET by immunohistochemistry. The class given is in vivo. Particulars: one patient, NSCLC with MET exon 14 skipping mutation, 200 mg BID. Here is the method:
Analysis was performed using PKSolver to define Cmax, trough concentration (Ctrough), AUC∞, AUC0-last, Vd, clearance, elimination half-life (t½), and Tmax of OMO-1.[24] In the paired biopsy analysis, expression of total MET and phosphorylated MET was performed by immunohistochemistry.

Entries after “also recorded” stand apart in the source; their conditions may differ. Some results are limits rather than exact numbers.

Regarding `FC(F)(c1ccc2ncccc2c1)c1nnc2ccc(-c3ccncc3)nn12` [OMO-1], the tumor growth result in data set [1] is listed as “complete inhibition of tumor growth”. Also, the “serum Cystatin C increase from baseline” value in data set [2] is greater than 1.5 fold. On OCT-2 [3] (monotherapy OMO-1), the “cystatin C and KIM-1, additional markers for renal function” value is on record as “did also not identify any significant renal function issues”. Besides, the “overall mean creatinine levels” value on OCT-2 [3] (throughout the study) is given as “within the normal ranges”. Besides, the renal toxicity result in data set [4] was “no renal toxicity was observed”. In addition, the median kynurenin level at OCT-2 [5] (8 h post-dose, IQR 396-559, pre-dose 509 ng/mL, P = .57) was 471 ng/mL. For the same compound, the mean kyn/trp ratio on OCT-2 [5] (8 h post-dose, pre-dose 57, P < .001) came to 49. In addition, the “mean tryptophan plasma level” value on OCT-2 [5] (cycle 1 day 1, 8 h post-dose, pre-dose 9475 ng/mL, P = .014, 30 patients Module 1) was 10 605 ng/mL. In addition, the “changes in plasma tryptophan levels and kyn/trp ratio, dependence on dose or Cmax” value on OCT-2 [5] (in vivo) is given as “not dose or Cmax dependent”. In data set [6], the clinical benefit entry is reported as “No clinical benefit of any length; also recorded: no clinical efficacy”. On phosphorylated MET, the “phosphorylated MET in on-treatment biopsy” value is “near-complete inhibition” and the “total MET levels in on-treatment biopsy” value was “without affecting total MET levels”.
